For assay [1], the target named is T1, full-length beta-Catenin (Uniprot ID P35222) (Homo sapiens, UniProt P35222).
T1 construct: 10 nM full-length beta-Catenin (Uniprot ID P35222)
T1 sequence (P35222 1-781): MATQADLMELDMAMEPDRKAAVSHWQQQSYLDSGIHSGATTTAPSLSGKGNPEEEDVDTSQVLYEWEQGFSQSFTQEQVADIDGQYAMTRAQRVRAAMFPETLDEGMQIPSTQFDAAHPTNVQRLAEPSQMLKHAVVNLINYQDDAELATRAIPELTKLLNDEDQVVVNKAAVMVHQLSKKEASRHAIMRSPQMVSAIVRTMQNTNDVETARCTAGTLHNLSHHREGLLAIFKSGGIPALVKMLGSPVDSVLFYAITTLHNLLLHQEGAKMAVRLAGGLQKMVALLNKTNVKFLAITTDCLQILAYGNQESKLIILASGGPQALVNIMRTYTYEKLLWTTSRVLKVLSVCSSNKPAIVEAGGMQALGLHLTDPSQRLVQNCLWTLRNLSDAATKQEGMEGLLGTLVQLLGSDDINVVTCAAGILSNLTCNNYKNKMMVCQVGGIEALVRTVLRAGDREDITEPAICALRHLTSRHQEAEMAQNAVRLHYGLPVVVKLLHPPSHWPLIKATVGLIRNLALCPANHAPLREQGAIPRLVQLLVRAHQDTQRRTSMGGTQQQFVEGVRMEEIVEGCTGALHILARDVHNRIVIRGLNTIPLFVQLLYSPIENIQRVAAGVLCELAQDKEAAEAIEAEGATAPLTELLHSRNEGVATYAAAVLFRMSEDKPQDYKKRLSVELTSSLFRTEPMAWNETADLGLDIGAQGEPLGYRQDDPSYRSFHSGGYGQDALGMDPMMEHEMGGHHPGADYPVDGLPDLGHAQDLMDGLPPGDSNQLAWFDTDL
The assay is described as follows: Fluorescence polarization IC50 (beta-catenin / 5FAM-TCF4 10-53 competition). In kind it is binding. The settings on record: fluorescence polarization; read-out: beta-Catenin FP IC50. A general note: Fluorescence polarisation rises when a labelled molecule tumbles more slowly, as on binding a larger partner.

For assay [2], the target named is T2, beta-catenin/TCF4 engagement (Homo sapiens, UniProt P35222).
T2 construct: expressed in transfected cells; host or cells: HEK293
T2 sequence (P35222 1-781): T1 sequence (P35222 1-781)
Briefly: Nano-BRET target engagement assay (B-cat-Halo & TCF4-Luc in HEK293 cells). In kind it is cell-based. The settings on record: absolute IC50; read-out: NanoBRET Abs IC50. (In BRET a luciferase serves as donor, and the signal depends on an acceptor being close.)

For the compound `C[C@@H]1NC(=O)[C@H](C)NC(=O)[C@H](CC(=O)O)NC(=O)[C@H](CC(=O)O)NC(=O)C2(CCCC=CCCCOC(=O)N3CC[C@@](C(=O)N[C@@H](Cc4ccccc4Cl)C(=O)N[C@@H](Cc4csc5ccccc45)C(=O)N[C@@H](C(N)=O)[C@H](C)O)(C3)NC(=O)[C@H](CC(N)=O)NC(=O)[C@H](Cc3ccccc3)NC1=O)CCCC=CC[C@]1(CCCN1S(C)(=O)=O)C(=O)N[C@@H](CC(=O)O)C(=O)N[C@@H](CC(C)(C)C)C(=O)N2` (stereo partly drawn) [I-1258, MeSO2-PL3-Asp-Npg-B5-Asp-Asp-Ala-Ala-Phe-Asn-PyrS2-2C1F-BztA-dThr-NH2], the IC50 in assay [1] is 17 nM; in assay [2] it was above 20000 nM.

With `COCCC(=O)N1CCC[C@]12CC=CCCCC1(CCCC=CCCCOC(=O)N3CC[C@@](C(=O)N[C@@H](Cc4ccccc4Cl)C(=O)N[C@@H](Cc4csc5ccccc45)C(=O)N[C@@H](C(N)=O)[C@H](C)O)(C3)NC(=O)[C@H](CC(N)=O)NC(=O)[C@H](Cc3ccccc3)NC(=O)[C@H](C)NC(=O)[C@H](C)NC(=O)[C@H](CC(=O)O)NC(=O)[C@H](CC(=O)O)NC1=O)NC(=O)[C@H](CC(C)(C)C)NC(=O)[C@H](CC(=O)O)NC2=O` (stereo partly drawn) [I-1259, MeOPr-PL3-Asp-Npg-B5-Asp-Asp-Ala-Ala-Phe-Asn-PyrS2-2C1F-BztA-dThr-NH2], the figures for the IC50 in assay [1] and in assay [2] were 10 nM and 18100 nM, respectively.

As to `CC(=O)N1CCC[C@]12CC=CCCCC1(CCCC=CCCCOC(=O)N3CC[C@@](C(=O)N[C@@H](Cc4ccccc4)C(=O)N[C@@H](Cc4csc5ccccc45)C(=O)N[C@@H](CO)C(N)=O)(C3)NC(=O)[C@H]([C@@H](C)O)NC(=O)[C@H](Cc3cccc(C(F)(F)F)c3)NC(=O)[C@H](C)NC(=O)[C@H](C)NC(=O)[C@H]([C@@H](C)O)NC(=O)[C@H](CC(=O)O)NC1=O)NC(=O)[C@H](CC(C)(C)C)NC(=O)[C@H](CC(=O)O)NC2=O` (stereo partly drawn) [I-1268, Ac-PL3-Asp-Npg-B5-Asp-Thr-Ala-Ala-3F3MeF-Thr-PyrS2-Phe-BztA-Ser-NH2], the IC50 in assay [1] is 198 nM; in assay [2], 28400 nM.

Turning to `CC(=O)N1CCC[C@]12CC=CCCCC1(CCCC=CCCCOC(=O)N3CC[C@@](C(=O)N[C@@H](Cc4ccccc4Cl)C(=O)N[C@@H](Cc4csc5ccccc45)C(=O)N[C@@H](CCC(N)=O)C(N)=O)(C3)NC(=O)[C@H](CC(C)C)NC(=O)[C@H](Cc3ccccc3)NC(=O)[C@H](C)NC(=O)[C@H](CCCCNC(C)C)NC(=O)[C@H](CC(=O)O)NC(=O)[C@H](CC(=O)O)NC1=O)NC(=O)[C@H](CC(C)(C)C)NC(=O)[C@H](CC(=O)O)NC2=O` (stereo partly drawn) [I-1275, Ac-PL3-Asp-Npg-B5-Asp-Asp-iPrLys-Ala-Phe-Leu-PyrS2-2C1F-BztA-Gln-NH2], the IC50 was 9 nM in assay [1] and 27800 nM in assay [2].

With `CC(=O)N1CCC[C@]12CC=CCCCC1(CCCC=CCCCOC(=O)N3CC[C@@](C(=O)N[C@@H](Cc4ccccc4Cl)C(=O)N[C@@H](Cc4csc5ccccc45)C(=O)N[C@H](C(N)=O)[C@@H](C)O)(C3)NC(=O)[C@H](CC(C)C)NC(=O)[C@H](Cc3ccccc3)NC(=O)[C@H](C)NC(=O)[C@H](CCCCNC(C)C)NC(=O)[C@H](CC(=O)O)NC(=O)[C@H](CC(=O)O)NC1=O)NC(=O)[C@H](CC(C)(C)C)NC(=O)[C@H](CC(=O)O)NC2=O` (stereo partly drawn) [I-1276, Ac-PL3-Asp-Npg-B5-Asp-Asp-iPrLys-Ala-Phe-Leu-PyrS2-2C1F-BztA-Thr-NH2], the IC50 in assay [1] was 10 nM; in assay [2], above 20000 nM.

For `CC(=O)N1CCC[C@]12CC=CCCCC1(CCCC=CCCCOC(=O)N3CC[C@@](C(=O)N[C@@H](Cc4ccccc4Cl)C(=O)N[C@@H](Cc4csc5ccccc45)C(=O)N[C@@H](CC(C)C)C(N)=O)(C3)NC(=O)[C@H](CC(C)C)NC(=O)[C@H](Cc3ccccc3)NC(=O)[C@H](C)NC(=O)[C@H](CCCCNC(C)C)NC(=O)[C@H](CC(=O)O)NC(=O)[C@H](CC(=O)O)NC1=O)NC(=O)[C@H](CC(C)(C)C)NC(=O)[C@H](CC(=O)O)NC2=O` (stereo partly drawn) [I-1277, Ac-PL3-Asp-Npg-B5-Asp-Asp-iPrLys-Ala-Phe-Leu-PyrS2-2C1F-BztA-Leu-NH2], the IC50 in assay [1] was 17 nM; in assay [2] it was above 20000 nM.

`CC(=O)N1CCC[C@]12CC=CCCCC1(CCCC=CCCCCCC[C@@](C)(C(=O)N[C@@H](Cc3ccccc3)C(=O)N[C@@H](Cc3csc4ccccc34)C(=O)N[C@@H](CCC(N)=O)C(N)=O)NC(=O)[C@H](CCO)NC(=O)[C@H](Cc3ccccc3)NC(=O)[C@H](C)NC(=O)[C@H](C)NC(=O)[C@H](CC(=O)O)NC(=O)[C@H](CC(=O)O)NC1=O)NC(=O)[C@H](CC(C)(C)C)NC(=O)[C@H](CC(=O)O)NC2=O` (stereo partly drawn) [I-1388, Ac-PL3-Asp-Npg-B5-Asp-Asp-Ala-Ala-Phe-Hse-S8-Phe-BztA-Gln-NH2]: the figures for the IC50 in assay [1] and in assay [2] were 18 nM and 11300 nM, respectively.

In the case of `CC(=O)N1CCC[C@]12CC=CCCCC1(CCCC=CCCCCCC[C@@](C)(C(=O)N[C@@H](Cc3ccsc3)C(=O)N[C@@H](Cc3csc4ccccc34)C(=O)N[C@@H](CCC(N)=O)C(N)=O)NC(=O)[C@H](CCO)NC(=O)[C@H](Cc3ccccc3)NC(=O)[C@H](C)NC(=O)[C@H](C)NC(=O)[C@H](CC(=O)O)NC(=O)[C@H](CC(=O)O)NC1=O)NC(=O)[C@H](CC(C)(C)C)NC(=O)[C@H](CC(=O)O)NC2=O` (stereo partly drawn) [I-1389, Ac-PL3-Asp-Npg-B5-Asp-Asp-Ala-Ala-Phe-Hse-S8-3Thi-BztA-Gln-NH2], the IC50 in assay [1] came to 9 nM; in assay [2], 9200 nM.

For the compound `CC(=O)N1CCC[C@]12CC=CCCCC1(CCCC=CCCCCCC[C@@](C)(C(=O)N[C@@H](Cc3cccs3)C(=O)N[C@@H](Cc3csc4ccccc34)C(=O)N[C@@H](CCC(N)=O)C(N)=O)NC(=O)[C@H](CC(N)=O)NC(=O)[C@H](Cc3ccccc3)NC(=O)[C@H](C)NC(=O)[C@H](C)NC(=O)[C@H](CC(=O)O)NC(=O)[C@H](CC(=O)O)NC1=O)NC(=O)[C@H](CC(C)(C)C)NC(=O)[C@H](CC(=O)O)NC2=O` (stereo partly drawn) [I-1391, Ac-PL3-Asp-Npg-B5-Asp-Asp-Ala-Ala-Phe-Asn-S8-2Thi-BztA-Gln-NH2], the IC50 was 11 nM in assay [1] and 35000 nM in assay [2].

Turning to `CC(=O)N1CCC[C@]12CC=CCCCC1(CCCC=CCCCCCC[C@@](C)(C(=O)N[C@@H](Cc3cccs3)C(=O)N[C@@H](Cc3csc4ccccc34)C(=O)N[C@@H](CCC(N)=O)C(N)=O)NC(=O)[C@H](CCO)NC(=O)[C@H](Cc3ccccc3)NC(=O)[C@H](C)NC(=O)[C@H](C)NC(=O)[C@H](CC(=O)O)NC(=O)[C@H](CC(=O)O)NC1=O)NC(=O)[C@H](CC(C)(C)C)NC(=O)[C@H](CC(=O)O)NC2=O` (stereo partly drawn) [I-1392, Ac-PL3-Asp-Npg-B5-Asp-Asp-Ala-Ala-Phe-Hse-S8-2Thi-BztA-Gln-NH2], the IC50 in assay [1] is 13 nM; in assay [2], 18300 nM.

Turning to `CC(=O)N1CCC[C@]12CC=CCCCC1(CCCC=CCCCCCC[C@@](C)(C(=O)N[C@@H](Cc3cccs3)C(=O)N[C@@H](Cc3csc4ccccc34)C(=O)N[C@H](CO)[C@@H](C)O)NC(=O)[C@H](CCO)NC(=O)[C@H](Cc3ccccc3)NC(=O)[C@H](C)NC(=O)[C@H](C)NC(=O)[C@H](CC(=O)O)NC(=O)[C@H](CC(=O)O)NC1=O)NC(=O)[C@H](CC(C)(C)C)NC(=O)[C@H](CC(=O)O)NC2=O` (stereo partly drawn) [I-1393, Ac-PL3-Asp-Npg-B5-Asp-Asp-Ala-Ala-Phe-Hse-S8-2Thi-BztA-Thro1], the concentration for half-maximal inhibition (IC50) in assay [1] was found to be 34 nM; in assay [2], 18600 nM.

As usually defined, the IC50 is the concentration needed to halve the response being measured.

The record behind these values is patent US20240116985A1, “STAPLED PEPTIDES AND METHODS THEREOF” (priority 2020, published 2024).
